Data on seven molecules can be found in publication PMC5988755, “First characterization of a microsporidial triosephosphate isomerase and the biochemical mechanisms of its inactivation to propose a new druggable target” (Scientific Reports, 2018).

As a reminder, the Km is the concentration of substrate that gives half-maximal velocity. A word on the kcat: it is the number of substrate molecules converted per active site and unit of time at saturation. The kcat/Km is the second-order rate constant that governs catalysis at low substrate concentration.

The target in data set [1] is T1, EiTIM (triosephosphate isomerase of E. intestinalis) (Encephalitozoon intestinalis, UniProt E0SA87).
T1 construct: gene Eint_110100; full length, synthetic codon-optimised gene (silent A479G) in pET-3aHisTEV, E. coli BL21(DE3)pLysS; N-terminal His-tag removed with TEV protease; homodimer
T1 sequence (E0SA87 1-242): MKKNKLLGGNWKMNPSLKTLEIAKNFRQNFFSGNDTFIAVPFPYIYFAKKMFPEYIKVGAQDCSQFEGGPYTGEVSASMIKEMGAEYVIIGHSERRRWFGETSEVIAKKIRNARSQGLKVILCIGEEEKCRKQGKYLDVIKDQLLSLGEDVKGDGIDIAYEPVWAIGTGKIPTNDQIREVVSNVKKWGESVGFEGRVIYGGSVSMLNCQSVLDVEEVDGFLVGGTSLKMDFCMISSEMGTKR
Description: residual activity after incubation, alpha-GDH coupled assay (NADH, […] nm). The data set is classed as biochemical. Conditions: read-out: 50% inactivation.

The target of data set [2] is T1, EiTIM (triosephosphate isomerase of E. intestinalis). Description: thermal denaturation by CD at […] nm of derivatized enzyme. Type of data set: binding. Conditions: covalent; 0.5 mM compound, 2 h at 37 °C, excess removed; untreated control Tm 52.8 ± 1.5 °C.
Data set [3] has the same target. The experiment in a line: residual activity after incubation, alpha-GDH coupled assay (NADH, […] nm). The data set is classed as biochemical. Conditions: covalent; 0.5 mM compound, 2 h at 37 °C; residual activity relative to untreated control; 3 Cys derivatized per subunit.
The target is the same in data set [4]. The description is as above. Conditions: covalent (Cys derivatization suggested), 0.5 mg/mL enzyme, 2 h at 37 °C, drug 0-50 μM. Type of data set: biochemical.
Substrate in the data set “purified protein”: O=C[C@H](O)COP(=O)(O)O
The experiment in a line: purified protein. Conditions: GAP to DHAP direction, 25 °C, 0.2 mM NADH, 0.9 U alpha-GDH, GAP 0.2-10 mM.

With `CC(=C(CCOC(=O)C(C)C)SSC(CCOC(=O)C(C)C)=C(C)N(C=O)Cc1cnc(C)nc1N)N(C=O)Cc1cnc(C)nc1N` (stereo in doubt) [sulbutiamine], the IC50 in data set [1] is 2.5 µM.
On the same count and under the same terms, under `O=C(O)c1cc(SSc2ccc([N+](=O)[O-])c(C(=O)O)c2)ccc1[N+](=O)[O-]` [DTNB, 5,5′-dithiobis(2-nitrobenzoic acid)] stands 25 µM.
`CSS(C)(=O)=O` [MMTS]: the “Tm (°C)^*” value in data set [2] is 49.8 ± 2.1 °C. In addition, the “Activity (%)^*” value in data set [3] came to 17.3 ± 5.5%.
For `CS(=O)(=O)SCCS(=O)(=O)O` [MTSES, sodium (2-sulfonatoethyl) methanethiosulfonate], in that order: 48.6 ± 1.9 °C and 2.4 ± 1.1%.
Take `COc1ccc2[nH]c([S+]([O-])Cc3ncc(C)c(OC)c3C)nc2c1` (centres unmarked) [omeprazole]: in data set [4] (omeprazole pre-activated with acid (HCl, 3 h)), the 50% inactivation entry is “sulbutiamine was two- and three-fold more effective than rabeprazole and omeprazole, respectively”.
Regarding `COCCCOc1ccnc(C[S+]([O-])c2nc3ccccc3[nH]2)c1C` (centres unmarked) [rabeprazole], the 50% inactivation entry in data set [4] is “sulbutiamine was two- and three-fold more effective than rabeprazole and omeprazole, respectively”.

B1: EiTIM (triosephosphate isomerase of E. intestinalis) (Encephalitozoon intestinalis ATCC 50506) (protein)
chain: MKKNKLLGGNWKMNPSLKTLEIAKNFRQNFFSGNDTFIAVPFPYIYFAKKMFPEYIKVGAQDCSQFEGGPYTGEVSASMIKEMGAEYVIIGHSERRRWFGETSEVIAKKIRNARSQGLKVILCIGEEEKCRKQGKYLDVIKDQLLSLGEDVKGDGIDIAYEPVWAIGTGKIPTNDQIREVVSNVKKWGESVGFEGRVIYGGSVSMLNCQSVLDVEEVDGFLVGGTSLKMDFCMISSEMGTKR
On to B1, for which, in the data set “purified protein”, the Km amounted to 830 ± 200 µM, the kcat is 1680 s⁻¹ and the kcat/Km is 2e+06 M⁻¹ s⁻¹.
